Experiment in all cases: cell-based
Test [1] deals with hNav1.5 (Homo sapiens, UniProt Q14524). The settings on record: IonWorks Quattro, read-out: IWQ Use Nav1.5.
For test [2], the target named is hNav1.7 (Homo sapiens, UniProt Q15858). The class given is cell-based.
For test [3], the target named is hNav1.3 (Homo sapiens, UniProt Q9NY46). The following applies: IonWorks Quattro, read-out: IWQ Use Nav1.3.
Setting [4] is: IonWorks Quattro, use-dependent block, hNav1.7, read-out: IWQ Use Nav1.7.
Where [5] appears, read: clamped to −110 mV, depolarized to −10 mV, 5 min after compound, n=2.

pIC50: −log10 of the molar value. Where two headings read alike, the source gives them in different places. Positions of bridges follow the written chain, without caps; N, C: chain ends. Non-standard residues stand in square brackets, D forms with d. Residues, ends and D or L forms follow the SMILES beside them. NMeF = CN[C@@H](Cc1ccccc1)C(=O)O; Phg = N[C@H](C(=O)O)c1ccccc1 Where only a bound is given, the exact number is not on record here.

Chain of hNav1.3 (Q9NY46 whole entry, looked up): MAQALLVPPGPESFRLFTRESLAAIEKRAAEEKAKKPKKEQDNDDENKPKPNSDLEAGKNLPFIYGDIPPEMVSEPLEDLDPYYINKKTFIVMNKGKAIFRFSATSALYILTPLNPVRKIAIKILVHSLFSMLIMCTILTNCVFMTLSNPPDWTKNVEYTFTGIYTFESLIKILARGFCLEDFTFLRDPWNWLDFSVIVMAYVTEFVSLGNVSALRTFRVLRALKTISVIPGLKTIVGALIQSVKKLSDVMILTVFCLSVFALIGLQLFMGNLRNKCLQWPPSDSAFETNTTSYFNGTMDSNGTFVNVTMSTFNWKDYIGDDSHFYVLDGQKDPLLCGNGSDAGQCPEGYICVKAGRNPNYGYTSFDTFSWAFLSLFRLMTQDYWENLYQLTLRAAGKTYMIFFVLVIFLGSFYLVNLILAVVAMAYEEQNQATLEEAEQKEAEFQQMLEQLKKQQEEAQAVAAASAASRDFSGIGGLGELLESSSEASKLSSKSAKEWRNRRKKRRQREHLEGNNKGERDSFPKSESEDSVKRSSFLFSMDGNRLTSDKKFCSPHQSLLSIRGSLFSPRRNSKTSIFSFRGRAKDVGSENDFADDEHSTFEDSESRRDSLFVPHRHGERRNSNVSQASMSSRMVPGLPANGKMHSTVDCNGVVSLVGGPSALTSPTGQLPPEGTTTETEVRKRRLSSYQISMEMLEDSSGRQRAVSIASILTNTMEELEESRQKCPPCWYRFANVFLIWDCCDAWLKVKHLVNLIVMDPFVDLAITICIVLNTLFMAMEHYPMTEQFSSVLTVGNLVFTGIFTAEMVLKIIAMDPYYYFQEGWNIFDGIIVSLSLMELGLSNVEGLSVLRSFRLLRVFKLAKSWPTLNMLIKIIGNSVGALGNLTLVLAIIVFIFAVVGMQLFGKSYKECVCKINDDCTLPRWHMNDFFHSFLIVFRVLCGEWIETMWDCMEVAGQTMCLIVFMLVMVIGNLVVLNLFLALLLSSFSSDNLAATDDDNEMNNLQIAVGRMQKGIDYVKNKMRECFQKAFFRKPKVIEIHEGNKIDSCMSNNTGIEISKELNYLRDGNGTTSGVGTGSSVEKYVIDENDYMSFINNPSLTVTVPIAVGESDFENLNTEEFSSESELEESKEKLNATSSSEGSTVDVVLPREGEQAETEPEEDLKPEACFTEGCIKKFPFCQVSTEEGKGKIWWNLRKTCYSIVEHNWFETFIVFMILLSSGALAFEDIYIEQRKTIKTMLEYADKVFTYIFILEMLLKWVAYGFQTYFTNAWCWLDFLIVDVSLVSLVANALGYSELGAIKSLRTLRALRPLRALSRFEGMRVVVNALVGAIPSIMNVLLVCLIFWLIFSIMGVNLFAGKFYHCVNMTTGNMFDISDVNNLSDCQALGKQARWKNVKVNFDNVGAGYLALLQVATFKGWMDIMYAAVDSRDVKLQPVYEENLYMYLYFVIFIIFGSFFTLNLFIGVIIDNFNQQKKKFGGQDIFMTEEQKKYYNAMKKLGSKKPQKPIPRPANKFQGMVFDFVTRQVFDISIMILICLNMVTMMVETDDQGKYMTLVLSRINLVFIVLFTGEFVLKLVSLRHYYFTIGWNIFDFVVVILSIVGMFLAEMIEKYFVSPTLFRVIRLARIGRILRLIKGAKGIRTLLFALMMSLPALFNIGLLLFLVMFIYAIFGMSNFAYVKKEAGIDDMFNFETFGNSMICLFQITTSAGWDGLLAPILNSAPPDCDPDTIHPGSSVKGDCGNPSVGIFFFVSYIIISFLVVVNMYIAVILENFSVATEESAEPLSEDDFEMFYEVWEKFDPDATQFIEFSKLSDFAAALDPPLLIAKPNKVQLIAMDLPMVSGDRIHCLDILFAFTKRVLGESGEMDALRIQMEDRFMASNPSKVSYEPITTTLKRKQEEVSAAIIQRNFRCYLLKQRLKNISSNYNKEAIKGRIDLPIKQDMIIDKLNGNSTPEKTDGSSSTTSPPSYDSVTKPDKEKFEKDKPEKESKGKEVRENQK
Chain of hNav1.7 (Q15858 whole entry, looked up): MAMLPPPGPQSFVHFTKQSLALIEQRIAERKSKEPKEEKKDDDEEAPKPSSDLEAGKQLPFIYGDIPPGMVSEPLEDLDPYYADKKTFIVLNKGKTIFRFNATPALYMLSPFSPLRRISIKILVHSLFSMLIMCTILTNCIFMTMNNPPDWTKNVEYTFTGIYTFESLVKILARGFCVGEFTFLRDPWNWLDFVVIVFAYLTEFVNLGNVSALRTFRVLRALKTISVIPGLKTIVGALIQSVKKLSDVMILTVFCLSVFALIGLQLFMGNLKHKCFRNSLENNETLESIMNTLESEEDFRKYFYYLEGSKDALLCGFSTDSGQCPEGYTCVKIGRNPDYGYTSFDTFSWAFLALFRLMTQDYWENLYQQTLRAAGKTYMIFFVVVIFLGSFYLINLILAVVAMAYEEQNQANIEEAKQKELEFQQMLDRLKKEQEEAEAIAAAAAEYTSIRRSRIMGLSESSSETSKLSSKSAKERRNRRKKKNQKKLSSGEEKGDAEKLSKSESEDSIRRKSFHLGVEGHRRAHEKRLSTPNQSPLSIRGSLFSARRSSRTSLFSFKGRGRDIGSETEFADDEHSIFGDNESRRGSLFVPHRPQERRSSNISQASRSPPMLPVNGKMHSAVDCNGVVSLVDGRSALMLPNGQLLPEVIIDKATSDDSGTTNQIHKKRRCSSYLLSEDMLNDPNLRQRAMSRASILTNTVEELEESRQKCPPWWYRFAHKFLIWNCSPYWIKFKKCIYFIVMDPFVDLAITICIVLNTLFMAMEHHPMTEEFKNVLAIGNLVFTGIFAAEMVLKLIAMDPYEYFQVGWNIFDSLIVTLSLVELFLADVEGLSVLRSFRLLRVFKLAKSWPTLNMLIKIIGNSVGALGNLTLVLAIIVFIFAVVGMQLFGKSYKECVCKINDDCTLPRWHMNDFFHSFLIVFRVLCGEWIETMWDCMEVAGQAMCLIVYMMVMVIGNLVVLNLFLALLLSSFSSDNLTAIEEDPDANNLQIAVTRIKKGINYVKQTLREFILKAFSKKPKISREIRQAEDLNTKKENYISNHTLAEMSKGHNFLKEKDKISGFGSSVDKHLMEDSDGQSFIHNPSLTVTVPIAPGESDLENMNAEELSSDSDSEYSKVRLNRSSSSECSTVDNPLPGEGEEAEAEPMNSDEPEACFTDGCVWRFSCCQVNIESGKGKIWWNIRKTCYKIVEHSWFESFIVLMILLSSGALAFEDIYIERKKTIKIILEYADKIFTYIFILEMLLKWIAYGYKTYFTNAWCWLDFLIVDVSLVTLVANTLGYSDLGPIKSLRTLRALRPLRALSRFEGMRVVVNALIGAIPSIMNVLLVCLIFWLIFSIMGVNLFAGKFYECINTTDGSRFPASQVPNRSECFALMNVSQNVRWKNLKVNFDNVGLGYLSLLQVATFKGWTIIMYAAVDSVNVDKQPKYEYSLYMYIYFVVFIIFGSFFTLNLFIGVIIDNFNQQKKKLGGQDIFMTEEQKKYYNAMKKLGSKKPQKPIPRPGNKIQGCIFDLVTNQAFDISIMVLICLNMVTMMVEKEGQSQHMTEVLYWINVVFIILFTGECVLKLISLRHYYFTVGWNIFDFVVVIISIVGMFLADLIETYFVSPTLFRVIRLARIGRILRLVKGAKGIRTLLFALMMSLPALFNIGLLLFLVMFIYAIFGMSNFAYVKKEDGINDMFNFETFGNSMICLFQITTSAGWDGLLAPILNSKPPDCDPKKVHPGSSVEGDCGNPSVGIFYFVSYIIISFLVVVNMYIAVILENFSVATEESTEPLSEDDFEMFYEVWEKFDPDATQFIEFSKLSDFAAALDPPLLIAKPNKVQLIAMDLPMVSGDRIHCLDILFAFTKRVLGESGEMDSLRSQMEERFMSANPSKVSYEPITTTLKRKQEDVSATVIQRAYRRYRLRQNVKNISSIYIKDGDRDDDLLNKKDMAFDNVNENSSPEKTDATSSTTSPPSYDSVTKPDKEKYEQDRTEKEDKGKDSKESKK

Take `CC[C@H](C)[C@@H]1NC(=O)[C@@H]2CSSC[C@@H]3NC(=O)[C@H](C(C)C)NC(=O)[C@H](CC(C)C)NC(=O)[C@H](CC(N)=O)NC(=O)[C@@H]4CCCN4C(=O)[C@H](CCCNC(=N)N)NC(=O)[C@H](CSSC[C@H](NC(=O)[C@@H](N)CC(=O)O)C(=O)N[C@@H](CC(C)C)C(=O)NCC(=O)N[C@@H](C)C(=O)N[C@@H](CCSC)C(=O)N[C@@H](CCCNC(=N)N)C(=O)N[C@@H](CCCCN)C(=O)N2)NC(=O)[C@H](CSSC[C@@H](C(=O)N[C@@H](CCCCN)C(=O)N[C@@H](Cc2ccc(O)cc2)C(=O)N[C@H](C(=O)N[C@@H](Cc2ccccc2)C(N)=O)C(C)C)NC(=O)[C@H](Cc2c[nH]c4ccccc24)NC(=O)[C@H](Cc2ccc(O)cc2)NC(=O)[C@H](Cc2c[nH]cn2)NC(=O)[C@H]([C@@H](C)O)NC(=O)[C@H](CCCNC(=N)N)NC(=O)[C@H](CO)NC3=O)NC(=O)[C@H](CCCCN)NC(=O)[C@H](CC(=O)O)NC(=O)[C@H](CC(N)=O)NC(=O)[C@H](CC(=O)O)NC(=O)[C@@H]2CCCN2C1=O` [compound 765] (H-DCLGAMRKCIPDNDKCCRPNLVCSRTHYWCKYVF-NH2; disulfide 2-17, 9-23, 16-30): the pIC50 was 4.38 in test [1] (use-dependent block, hNav1.5); 6.10 in test [2] (setting [4]); 5.85 in test [3] (use-dependent block, hNav1.3).
Take `CC[C@H](C)[C@H](N)C(=O)N[C@H]1CSSC[C@@H]2NC(=O)[C@@H]3CSSC[C@@H](C(=O)N[C@@H](CCCCN)C(=O)N[C@@H](Cc4ccc(O)cc4)C(=O)N[C@H](C(=O)N[C@@H](Cc4ccccc4)C(N)=O)C(C)C)NC(=O)[C@H](Cc4c[nH]c5ccccc45)NC(=O)[C@H](CCCCN)NC(=O)[C@H](Cc4c[nH]cn4)NC(=O)[C@H]([C@@H](C)O)NC(=O)[C@H](CCCNC(=N)N)NC(=O)[C@H](CO)NC(=O)[C@H](CSSC[C@H](NC(=O)[C@H](CCCCN)NC(=O)[C@H](CCCNC(=N)N)NC(=O)[C@H](CCSC)NC(=O)[C@H](Cc4ccccc4)NC(=O)CNC(=O)[C@H](CC(C)C)NC1=O)C(=O)N[C@@H]([C@@H](C)CC)C(=O)N1CCC[C@H]1C(=O)N[C@@H](CC(=O)O)C(=O)N[C@@H](CC(N)=O)C(=O)N[C@@H](CC(=O)O)C(=O)N[C@@H](CCCCN)C(=O)N3)NC(=O)[C@H](C(C)C)NC(=O)[C@H](CC(C)C)NC(=O)[C@H](CC(N)=O)NC(=O)[C@@H]1CCCN1C(=O)[C@H](CCCNC(=N)N)NC2=O` [SEQ ID NO: 189] (H-ICLGFMRKCIPDNDKCCRPNLVCSRTHKWCKYVF-NH2; disulfide 2-17, 9-23, 16-30): the pIC50 in test [1] (setting [5]) is 5.09; in test [2] (IonWorks Quattro, clamped to −110 mV, depolarized to −10 mV, 5 min after compound, n=2, read-out: IWQ Use Nav1.7), 7.00; in test [3] (setting [5]), 7.15.
For `CC[C@H](C)[C@@H]1NC(=O)[C@H](CC(=O)O)NC(=O)[C@@H]2CCCN2C(=O)[C@H]([C@@H](C)CC)NC(=O)[C@@H]2CSSC[C@@H]3NC(=O)[C@H](C(C)C)NC(=O)[C@H](CC(C)C)NC(=O)[C@H](CC(N)=O)NC(=O)[C@@H]4CCCN4C(=O)[C@H](CCCNC(=N)N)NC(=O)[C@H](CSSC[C@H](NC(=O)[C@@H](N)CC(=O)O)C(=O)N[C@@H](CC(C)C)C(=O)NCC(=O)N[C@@H](C)C(=O)N[C@@H](Cc4ccccc4)C(=O)N[C@@H](CCCNC(=N)N)C(=O)N[C@@H](CCCCN)C(=O)N2)NC(=O)[C@H](CSSC[C@@H](C(=O)N[C@@H](CCCCN)C(=O)N[C@@H](Cc2ccc(O)cc2)C(=O)N[C@H](C(=O)N[C@@H](Cc2ccccc2)C(=O)O)C(C)C)NC(=O)[C@H](Cc2c[nH]c4ccccc24)NC(=O)[C@H](CCCNC(=N)N)NC(=O)[C@H](Cc2c[nH]cn2)NC(=O)[C@H]([C@@H](C)O)NC(=O)[C@H](CCCNC(=N)N)NC(=O)[C@H](CO)NC3=O)NC(=O)[C@H](CCCCN)NC(=O)[C@H](CC(=O)O)NC1=O` [compound 842], the pIC50 in test [1] (use-dependent block, hNav1.5) is under 5.30; in test [2] (setting [4]), under 5.30; in test [3] (use-dependent block, hNav1.3) it was 5.52.
In the case of `CC[C@H](C)[C@@H]1NC(=O)[C@@H]2CSSC[C@@H]3NC(=O)[C@H](c4ccccc4)NC(=O)[C@H](CC(C)C)NC(=O)[C@H](CC(N)=O)NC(=O)[C@@H]4CCCN4C(=O)[C@H](CCCNC(=N)N)NC(=O)[C@H](CSSC[C@H](NC(=O)[C@@H](N)CC(=O)O)C(=O)N[C@@H](CC(C)C)C(=O)NCC(=O)N[C@@H](Cc4ccccc4)C(=O)N[C@@H](CCSC)C(=O)N[C@@H](CCCNC(=N)N)C(=O)N[C@@H](CCCCN)C(=O)N2)NC(=O)[C@H](CSSC[C@@H](C(=O)N[C@@H](CCCCN)C(=O)N[C@@H](Cc2ccc(O)cc2)C(=O)N[C@H](C(=O)N[C@@H](Cc2ccccc2)C(N)=O)C(C)C)NC(=O)[C@H](Cc2c[nH]c4ccccc24)NC(=O)[C@H](CCCCN)NC(=O)[C@H](Cc2c[nH]cn2)NC(=O)[C@H]([C@@H](C)O)NC(=O)[C@H](CCCNC(=N)N)NC(=O)[C@H](CO)NC3=O)NC(=O)[C@H](CCCCN)NC(=O)[C@H](CC(=O)O)NC(=O)[C@H](CC(N)=O)NC(=O)[C@H](CC(=O)O)NC(=O)[C@@H]2CCCN2C1=O` [compound 330] (H-DCLGFMRKCIPDNDKCCRPNL[Phg]CSRTHKWCKYVF-NH2; disulfide 2-17, 9-23, 16-30), the pIC50 is 5.33 in test [1] (Use); 6.74 in test [2] (IonWorks Quattro, Use, read-out: IWQ Use Nav1.7); 7.15 in test [3] (Use).
For the molecule `CC[C@H](C)[C@@H]1NC(=O)[C@@H]2CSSC[C@@H]3NC(=O)[C@H](C(C)C)NC(=O)[C@H](CC(C)C)NC(=O)[C@H](CC(N)=O)NC(=O)[C@@H]4CCCN4C(=O)[C@H](CCCNC(=N)N)NC(=O)[C@H](CSSC[C@H](NC(=O)[C@@H](N)CC(=O)O)C(=O)N[C@@H](CC(C)C)C(=O)NCC(=O)N(C)[C@@H](Cc4ccccc4)C(=O)N[C@@H](Cc4ccccc4)C(=O)N[C@@H](CCCNC(=N)N)C(=O)N[C@@H](CCCCN)C(=O)N2)NC(=O)[C@H](CSSC[C@@H](C(=O)N[C@@H](CCCCN)C(=O)N[C@@H](Cc2ccc(O)cc2)C(=O)N[C@H](C(=O)N[C@@H](Cc2ccccc2)C(N)=O)C(C)C)NC(=O)[C@H](Cc2c[nH]c4ccccc24)NC(=O)[C@H](CCCCN)NC(=O)[C@H](Cc2c[nH]cn2)NC(=O)[C@H]([C@@H](C)O)NC(=O)[C@H](CCCNC(=N)N)NC(=O)[C@H](CO)NC3=O)NC(=O)[C@H](CCCCN)NC(=O)[C@H](CC(=O)O)NC(=O)[C@H](CC(N)=O)NC(=O)[C@H](CC(=O)O)NC(=O)[C@@H]2CCCN2C1=O` [compound 629] (H-DCLG[NMeF]FRKCIPDNDKCCRPNLVCSRTHKWCKYVF-NH2; disulfide 2-17, 9-23, 16-30), the pIC50 in test [1] (use-dependent protocol, hNav1.5) is 4.87; in test [2] (IonWorks Quattro, use-dependent protocol, hNav1.7, read-out: IWQ Use Nav1.7), 7.11; in test [3] (use-dependent protocol, hNav1.3), 7.02.
Consider `CC[C@H](C)[C@@H]1NC(=O)[C@@H]2CSSC[C@@H]3NC(=O)[C@H](C(C)C)NC(=O)[C@H](CC(C)C)NC(=O)[C@H](CC(N)=O)NC(=O)[C@@H]4CCCN4C(=O)[C@H](CCCNC(=N)N)NC(=O)[C@H](CSSC[C@H](NC(=O)[C@@H](N)CC(=O)O)C(=O)N[C@@H](CC(C)C)C(=O)NCC(=O)N[C@@H](C)C(=O)N[C@@H](CC(C)C)C(=O)N[C@@H](CCCNC(=N)N)C(=O)N[C@@H](CCCCN)C(=O)N2)NC(=O)[C@H](CSSC[C@@H](C(=O)N[C@@H](CCCCN)C(=O)N[C@@H](Cc2ccc(O)cc2)C(=O)N[C@H](C(=O)N[C@@H](Cc2ccccc2)C(N)=O)C(C)C)NC(=O)[C@H](Cc2c[nH]c4ccccc24)NC(=O)[C@H](CCCCN)NC(=O)[C@H](Cc2c[nH]cn2)NC(=O)[C@H]([C@@H](C)O)NC(=O)[C@H](C)NC(=O)[C@H](CO)NC3=O)NC(=O)[C@H](CCCCN)NC(=O)[C@H](CC(=O)O)NC(=O)[C@H](CC(N)=O)NC(=O)[C@H](CC(=O)O)NC(=O)[C@@H]2CCCN2C1=O` [compound 731], for which the pIC50 in test [1] (use-dependent block, hNav1.5) was 4.42; in test [2] (setting [4]) it was 6.22; in test [3] (use-dependent block, hNav1.3), 5.55.
As to `CSCC[C@@H]1NC(=O)[C@H](Cc2ccccc2)NC(=O)CNC(=O)[C@H](CC(C)C)NC(=O)[C@@H](NC(=O)[C@@H](N)CC(=O)O)CSSC[C@@H]2NC(=O)[C@@H]3CSSC[C@@H](C(=O)N[C@@H](CCCCN)C(=O)N[C@@H](Cc4ccc(O)cc4)C(=O)N[C@H](C(=O)N[C@@H](Cc4ccccc4)C(N)=O)C(C)C)NC(=O)[C@H](Cc4c[nH]c5ccccc45)NC(=O)[C@H](CCCCN)NC(=O)[C@H](Cc4cnc[nH]4)NC(=O)[C@H]([C@@H](C)O)NC(=O)[C@H](CCCNC(=N)N)NC(=O)[C@H](CO)NC(=O)[C@H](CSSC[C@H](NC(=O)[C@H](CCCCN)NC(=O)[C@H](CCCNC(=N)N)NC1=O)C(=O)N[C@@H](CC(N)=O)C(=O)N1CCC[C@H]1C(=O)N[C@@H](CC(=O)O)C(=O)N[C@@H](CC(N)=O)C(=O)N[C@@H](CC(=O)O)C(=O)N[C@@H](CCCCN)C(=O)N3)NC(=O)[C@H](C(C)C)NC(=O)[C@H](CC(C)C)NC(=O)[C@H](CC(N)=O)NC(=O)[C@@H]1CCCN1C(=O)[C@H](CCCNC(=N)N)NC2=O` [compound 90] (H-DCLGFMRKCNPDNDKCCRPNLVCSRTHKWCKYVF-NH2; disulfide 2-17, 9-23, 16-30), the pIC50 in test [1] (Use) is 4.85; in test [2], 6.31; in test [3] (Use), 6.72.

The values above are taken from patent publication US9340590B2 (priority 2011, dated 2016).
